Entries after “also recorded” stand apart in the source; their conditions may differ.

One series has as its system MRC-5 fibroblasts. As to the kind of experiment: MTT cellular proliferation assay, mortal MRC-5 fibroblasts. In kind it is cell-based. The conditions noted are these: 37 °C, mean ± SD (3 experiments). The procedure: To examine the selectivity of the Dp4e4mT complexes against neoplastic versus normal mortal cells, their anti-proliferative efficacy was compared to mortal MRC-5 fibroblasts after a 72 h/37 °C incubation (Table 3). […] To further examine selectivity, an in vitro therapeutic index was calculated as per our previous investigations.[28,57,59,66,67] This parameter is derived from the ratio of the IC50 of MRC-5 cells/IC50 of SK-N-MC or AsPC-1 cells; with high ratios indicating greater selective anti-proliferative activity against neoplastic cells (Table 3). The mean therapeutic index is the average of the therapeutic indices calculated for both tumor cell-types. […] The mean therapeutic index of Dp4e4mT exceeded that obtained for clinically trialed DpC (157), as well as that of Dp44mT (112) and DFO (6). […]
All cell lines were procured from the American Type Culture Collection (ATCC; Manassas, VA). The SK-N-MC neuroepithelioma cell line and the mortal MRC-5 fibroblasts were cultured in minimum essential medium (Sigma-Aldrich), while the AsPC-1 cell line was cultured in Roswell Park Memorial Institute 1640 medium (Thermo Fisher Scientific, MA, USA). Both media were supplemented with 10% fetal calf serum, non-essential amino acids (1 mM), sodium pyruvate (1 mM), L-glutamine (2 mM), penicillin (100 U/mL), streptomycin (100 U/mL), and Fungizone (0.5 µg/mL). Cells were maintained at 37 °C in an incubator under a humidified atmosphere with 5% CO 2, following established protocols. 11 Cellular Proliferation Assay
Cellular proliferation was evaluated through the established 3-(4,5-dimethylthiazol-2-yl)-2,5-diphenyltetrazolium bromide (MTT) proliferation assay, validated by viable cell counts.12 […]
Ligands and complexes were dissolved in DMSO to make a stock solution of 10 mM, subsequently diluted in culture media. For cell culture experiments, the DMSO's maximum concentration remained below 0.5% (v/v), with no discernible impact on proliferation.12 MTT […]
Trypan blue staining.12 Analysis of the data was executed employing MARS Data Analysis Software (BMG LabTech; version 3.30). The concentration of agents necessary to inhibit cellular proliferation by 50% (IC 50) was then calculated. […]
For orientation: Formazan colour is commonly taken as a measure of viable cells.

Series [1] can be described thus: Transmetallation kinetics with FeCl3 in DMSO (time-resolved UV-vis). It counts as physicochemical. The conditions noted are these: for Observed pseudo first order rate constant kobs, FeCl3: 10-fold excess of FeCl3 in DMSO, 25 °C; for t½, transmetallation with FeCl3: FeCl3 in DMSO. How it is done:
The capacity of the Fe(III), Ni(II), Co(III), Zn(II), Ga(III), and Pd(II) complexes of Dp4e4mT to transmetallate with Cu(II) and/or Fe(III) to result in redox active Cu(II) and Fe(III) complexes could be critical in understanding their anti-proliferative efficacy, redox activity, and ability to oxidize oxy-Mb and oxy-Hb. To examine this, LC-MS spectrometry was performed in DMSO after the addition of 1 equivalent of FeCl3 or Cu(OAc)2 and the solutions then incubated for 24 h/20 °C due to slow reaction kinetics. This solution was then diluted 1 : 1 in methanol and LC-MS performed using a mobile phase consisting of 90% MeOH, 9.9% water, and 0.1% formic acid (Fig. S2–S9 ^†). These investigations were supported by EPR studies in DMSO after the addition of 1 equivalent of FeCl3 or Cu(OAc)2 incubated under the same conditions (Fig. 3A–G). As a third method to investigate transmetallation, kinetic studies using time-resolved UV-vis spectroscopy were performed under pseudo-first order conditions with a 10-fold excess of FeCl3 or Cu(OAc)2 in DMSO (Fig. S11–S16 ^†). The pseudo-first order rate constants were calculated from the time-dependent UV-vis spectroscopy data (at all wavelengths) with Reactlab Kinetics[49] and collected in Table S2. ^† […]
Time-dependent UV-Vis absorption spectra were measured on an Agilent 8453 diode array UV−Vis spectrophotometer, equipped with a thermostatted (± 0.1 °C) multicell transport cooled by a Huber Ministat 230 recirculating cooling bath. Spectral analysis was carried out with Reactlab Kinetics. 10 […]
Table S2. Observed pseudo first order rate constants (k obs, s−1) for reactions of each Dp4e4mT complex with a 10-fold excess of Cu(OAc) 2 or FeCl 3 in DMSO or water (pH 7.4 or 5.0) at 25 °C. […]
[Co(Dp4e4mT)2]+ No reaction No reaction No reaction No reaction […]
a Reaction could not be deciphered by UV-Vis spectroscopy; bchlorido ligand hydrolysis

The mark [2] stands for this setting: Homo sapiens, MRC5, MRC-5, 72 h.

For the compound `CCN(C)C(=S)NN=C(c1ccccn1)c1ccccn1` [Dp4e4mT, di-2-pyridylketone-4-ethyl-4-methyl-3-thiosemicarbazone], the IC50 in the series on MRC-5 fibroblasts (setting [2]) came to 1810 ± 518 nM.
`CN(C)C(=S)NN=C(c1ccccn1)c1ccccn1` [Dp44mT, di-2-pyridylketone 4,4-dimethyl-3-thiosemicarbazone, reference compound] came in with an IC50 with MRC-5 fibroblasts (setting [2]) of 1073 ± 7 nM.
`CN(C(=S)NN=C(c1ccccn1)c1ccccn1)C1CCCCC1` [DpC, di-2-pyridylketone 4-cyclohexyl-4-methyl-3-thiosemicarbazone, reference compound]: the IC50 in the series on MRC-5 fibroblasts (setting [2]) was determined as 2987 ± 8 nM.
`CCN(C)C([S-])=NN=C(c1ccccn1)c1ccccn1.CCN(C)C([S-])=NN=C(c1ccccn1)c1ccccn1.[Co+3]` [[Co(Dp4e4mT)2]^+]: inhibition with MRC-5 fibroblasts (MRC-5, 72 h) was half-maximal at 3901 ± 7 nM (IC50). Also, the “Observed pseudo first order rate constant kobs, FeCl3” value in series [1] is “No reaction”.
As to `CCN(C)C([S-])=NN=C(c1ccccn1)c1ccccn1.[Cl-].[Cu+2]` [[Cu(Dp4e4mT)Cl]], in the series with MRC-5 fibroblasts (MRC-5, 72 h), half-maximal inhibition (IC50) required 391 ± 72 nM. Besides, in series [1], the “Observed pseudo first order rate constant kobs, FeCl3” value is “No reaction”.
In the series with MRC-5 fibroblasts (MRC-5, 72 h), `CCN(C)C([S-])=NN=C(c1ccccn1)c1ccccn1.CCN(C)C([S-])=NN=C(c1ccccn1)c1ccccn1.[Fe+3]` [[Fe(Dp4e4mT)2]^+] gave an IC50 of 1980 ± 6 nM.
Regarding `CCN(C)C([S-])=NN=C(c1ccccn1)c1ccccn1.CCN(C)C([S-])=NN=C(c1ccccn1)c1ccccn1.[Ga+3]` [[Ga(Dp4e4mT)2]^+], in the series on MRC-5 fibroblasts (MRC-5, 72 h), the half-maximal inhibitory concentration (IC50) stood at 774 ± 14 nM. Besides, the “t½, transmetallation with FeCl3” value in series [1] fell in the range of 3 to 4 h.
The compound `CCN(C)C([S-])=NN=C(c1ccccn1)c1ccccn1.CCN(C)C([S-])=NN=C(c1ccccn1)c1ccccn1.[Ni+2]` [[Ni(Dp4e4mT)2]] displayed an IC50 with MRC-5 fibroblasts (MRC-5, 72 h) of more than 5000 nM. The “Observed pseudo first order rate constant kobs, FeCl3” value in series [1] is reported as “No reaction; also recorded: unreactive”. Also, the “extent of reaction with Fe(III)” value in series [1] (DMSO, after 3 days) is given as approximately 20%.
`CCN(C)C([S-])=NN=C(c1ccccn1)c1ccccn1.[Cl-].[Pd+2]` [[Pd(Dp4e4mT)Cl]] registered an IC50 with MRC-5 fibroblasts (MRC-5, 72 h) of 1040 ± 11 nM. The “Observed pseudo first order rate constant kobs, FeCl3” value in series [1] was “No reaction”.
`CCN(C)C([S-])=NN=C(c1ccccn1)c1ccccn1.CCN(C)C([S-])=NN=C(c1ccccn1)c1ccccn1.[Zn+2]` [[Zn(Dp4e4mT)2]]: in series [1], the “Observed pseudo first order rate constant kobs, FeCl3” value amounted to 0.00891 s⁻¹ and the “t½, transmetallation with FeCl3” value was approximately 0.017 h.

As usually defined, the IC50 is the concentration needed to halve the response being measured. Low readings indicate greater potency in that assay, high ones weaker potency in that assay.
